SMILES strings stand for the structures.

The results in this text go back to ChEMBL document CHEMBL5291721, “A preclinical secondary pharmacology resource illuminates target-adverse drug reaction associations of marketed drugs” (Nat Commun, 2023).

Assay [1] deals with T1, 5-hydroxytryptamine receptor 2C (Homo sapiens, UniProt P28335).
T1 sequence (P28335 whole entry): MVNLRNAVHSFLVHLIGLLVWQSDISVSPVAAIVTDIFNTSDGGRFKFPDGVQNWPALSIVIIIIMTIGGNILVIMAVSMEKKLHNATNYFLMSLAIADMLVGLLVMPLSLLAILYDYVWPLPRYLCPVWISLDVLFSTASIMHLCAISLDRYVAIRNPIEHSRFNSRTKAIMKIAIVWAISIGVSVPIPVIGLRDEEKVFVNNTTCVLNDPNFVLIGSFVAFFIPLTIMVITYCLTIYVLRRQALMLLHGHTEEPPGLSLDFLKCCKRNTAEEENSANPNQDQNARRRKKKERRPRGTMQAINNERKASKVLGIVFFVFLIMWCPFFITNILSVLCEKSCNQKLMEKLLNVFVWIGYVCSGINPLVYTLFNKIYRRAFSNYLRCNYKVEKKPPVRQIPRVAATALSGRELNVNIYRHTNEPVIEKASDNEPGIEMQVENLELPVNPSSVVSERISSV

Assay [2] has as its target T2, 5-hydroxytryptamine receptor 1A (Homo sapiens, UniProt P08908).
T2 sequence (P08908 whole entry): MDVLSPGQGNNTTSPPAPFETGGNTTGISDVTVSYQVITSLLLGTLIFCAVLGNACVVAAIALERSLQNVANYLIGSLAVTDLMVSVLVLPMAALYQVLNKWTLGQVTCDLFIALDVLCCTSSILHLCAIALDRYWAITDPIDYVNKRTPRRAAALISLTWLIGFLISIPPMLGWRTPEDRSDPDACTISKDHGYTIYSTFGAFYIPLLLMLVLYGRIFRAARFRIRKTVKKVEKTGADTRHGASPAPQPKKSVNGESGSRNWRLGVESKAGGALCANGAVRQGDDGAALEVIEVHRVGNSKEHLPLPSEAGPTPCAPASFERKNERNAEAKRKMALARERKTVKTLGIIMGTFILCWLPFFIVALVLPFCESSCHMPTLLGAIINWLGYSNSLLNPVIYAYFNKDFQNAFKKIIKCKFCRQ
In kind it is functional, cell-based.

A further assay concerns the target T3, Endothelin-1 receptor (Homo sapiens, UniProt P25101).
T3 sequence (P25101 whole entry): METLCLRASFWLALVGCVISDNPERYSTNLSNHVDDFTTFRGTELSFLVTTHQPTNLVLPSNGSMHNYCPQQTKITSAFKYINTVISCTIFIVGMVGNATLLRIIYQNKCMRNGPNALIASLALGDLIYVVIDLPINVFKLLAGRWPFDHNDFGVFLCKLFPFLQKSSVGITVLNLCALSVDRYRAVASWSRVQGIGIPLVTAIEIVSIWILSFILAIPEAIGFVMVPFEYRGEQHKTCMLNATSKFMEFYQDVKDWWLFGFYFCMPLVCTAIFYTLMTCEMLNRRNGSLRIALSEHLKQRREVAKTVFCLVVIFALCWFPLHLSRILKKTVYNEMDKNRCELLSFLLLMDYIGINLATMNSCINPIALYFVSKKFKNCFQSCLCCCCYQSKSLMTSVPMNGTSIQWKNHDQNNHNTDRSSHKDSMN

In another assay the target is D(1A) dopamine receptor (Homo sapiens, UniProt P21728). In kind it is functional, cell-based.
Sequence of D(1A) dopamine receptor (P21728 whole entry): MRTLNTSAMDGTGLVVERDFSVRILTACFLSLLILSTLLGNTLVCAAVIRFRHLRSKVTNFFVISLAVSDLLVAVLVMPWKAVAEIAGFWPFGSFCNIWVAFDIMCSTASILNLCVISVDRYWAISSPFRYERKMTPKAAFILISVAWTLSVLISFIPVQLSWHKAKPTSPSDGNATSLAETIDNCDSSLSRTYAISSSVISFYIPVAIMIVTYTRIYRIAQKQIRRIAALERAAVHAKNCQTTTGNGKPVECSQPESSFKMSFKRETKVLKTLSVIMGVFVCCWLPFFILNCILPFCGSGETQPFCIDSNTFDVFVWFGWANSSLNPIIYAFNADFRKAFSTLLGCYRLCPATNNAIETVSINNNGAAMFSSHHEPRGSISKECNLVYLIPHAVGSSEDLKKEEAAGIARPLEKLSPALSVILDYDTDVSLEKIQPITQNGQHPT
In assay [3] the target is Beta-1 adrenergic receptor (Homo sapiens, UniProt P08588). In kind it is functional.
Sequence of Beta-1 adrenergic receptor (P08588 whole entry): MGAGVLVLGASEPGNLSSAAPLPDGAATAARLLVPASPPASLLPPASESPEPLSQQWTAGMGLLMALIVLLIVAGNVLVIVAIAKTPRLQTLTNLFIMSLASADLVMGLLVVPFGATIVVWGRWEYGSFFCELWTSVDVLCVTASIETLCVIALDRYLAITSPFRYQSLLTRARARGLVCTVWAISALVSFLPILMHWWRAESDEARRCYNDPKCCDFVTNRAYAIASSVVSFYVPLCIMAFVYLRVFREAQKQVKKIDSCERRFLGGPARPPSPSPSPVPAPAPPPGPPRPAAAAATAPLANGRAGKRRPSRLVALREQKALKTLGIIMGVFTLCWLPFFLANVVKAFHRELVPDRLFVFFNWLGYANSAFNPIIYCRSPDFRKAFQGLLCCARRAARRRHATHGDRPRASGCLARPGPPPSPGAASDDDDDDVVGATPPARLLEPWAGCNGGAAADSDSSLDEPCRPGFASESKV
In another assay the target is T4, Glucocorticoid receptor (Homo sapiens, UniProt P04150).
T4 sequence (P04150 whole entry): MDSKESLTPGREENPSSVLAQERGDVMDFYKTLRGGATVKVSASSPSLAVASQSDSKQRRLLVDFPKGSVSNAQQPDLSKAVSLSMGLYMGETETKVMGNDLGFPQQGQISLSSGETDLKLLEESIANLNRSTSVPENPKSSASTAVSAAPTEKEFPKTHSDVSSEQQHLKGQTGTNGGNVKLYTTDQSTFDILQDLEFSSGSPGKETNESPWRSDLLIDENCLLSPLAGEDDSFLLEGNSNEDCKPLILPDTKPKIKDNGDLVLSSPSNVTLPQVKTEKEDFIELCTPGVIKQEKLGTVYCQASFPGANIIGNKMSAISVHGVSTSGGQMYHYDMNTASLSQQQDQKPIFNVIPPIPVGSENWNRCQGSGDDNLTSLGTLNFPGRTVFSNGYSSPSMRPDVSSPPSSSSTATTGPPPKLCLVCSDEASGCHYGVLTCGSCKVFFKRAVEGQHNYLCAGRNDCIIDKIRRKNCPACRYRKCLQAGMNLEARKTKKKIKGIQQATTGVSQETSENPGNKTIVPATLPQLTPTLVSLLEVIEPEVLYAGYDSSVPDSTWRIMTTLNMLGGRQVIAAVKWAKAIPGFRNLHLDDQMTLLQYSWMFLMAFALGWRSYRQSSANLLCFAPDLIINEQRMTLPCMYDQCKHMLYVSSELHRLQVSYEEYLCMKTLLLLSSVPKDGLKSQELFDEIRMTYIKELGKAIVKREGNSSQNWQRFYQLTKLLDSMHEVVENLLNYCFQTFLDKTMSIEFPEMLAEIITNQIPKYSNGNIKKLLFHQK
Note: assay procedure not described here.

Usually AC50 stands for the midpoint of the concentration-response curve, whichever way the signal moves. Read a high AC50 as weaker potency. With `Cc1ccc(-n2nccn2)c(C(=O)N2CCN(c3nc4cc(Cl)ccc4o3)CC[C@H]2C)c1` [SUVOREXANT], the concentration at half-maximal activity (AC50) (in assay [1]; in assay [2]; on Endothelin-1 receptor; on D(1A) dopamine receptor; in assay [3]; at Glucocorticoid receptor) was greater than 30 µM in each case.

On to `COc1cc2c(N)nc(N3CCN(C(=O)OCC(C)(C)O)CC3)nc2c(OC)c1OC` [TRIMAZOSIN], for which the half-maximal activity concentration (AC50) in assay [1] is greater than 30 µM; in assay [2], 22 µM; on Endothelin-1 receptor it was greater than 30 µM; at D(1A) dopamine receptor it was greater than 30 µM; in assay [3] it was greater than 30 µM; at Glucocorticoid receptor, greater than 30 µM.

For the compound `C=CCN1CCCC1CNC(=O)c1cc(S(N)(=O)=O)cc(OC)c1OC` (stereo not drawn) [VERALIPRIDE], the concentration at half-maximal activity (AC50) in assay [1] is greater than 30 µM; in assay [2], 3.6 µM; on Endothelin-1 receptor, greater than 30 µM; at D(1A) dopamine receptor, greater than 30 µM; in assay [3] it was greater than 30 µM; at Glucocorticoid receptor, greater than 30 µM.
